According to patent US6350745B1, “Thrombin inhibitors” (Merck & Co., Inc., priority 1999, dated 2002):

Target: human α-thrombin (Homo sapiens, UniProt P00734)
Test: In vitro assay for determining proteinase inhibition (thrombin)
Type: biochemical
Settings: 25° C., 0.05 M TRIS buffer pH 7.4, 0.15 M NaCl, 0.1% PEG
Experimental: In vitro Assay for Determining Proteinase Inhibition
Assays of human α-thrombin and human trypsin were performed by the methods substantially as described in Thrombosis Research, Issue No. 70, page 173 (1993) by S. D. Lewis et al.
The assays were carried out at 25° C. in 0.05 M TRIS buffer pH 7.4, 0.15 M NaCl, 0.1% PEG. Trypsin assays also contained 1 mM CaCl2. In assays wherein rates of hydrolysis of a p-nitroanilide (pna) substrate were determined, a Thermomax 96-well plate reader was used was used to measure (at 405 nm) the time dependent appearance of p-nitroaniline. sar-PR-pna was used to assay human […]thrombin (Km=125 μM) and bovine trypsin (Km=125 μM). p-Nitroanilide substrate concentration was determined from measurements of absorbance at 342 nm using an extinction coefficient of 8270 cm^−1 M^−1.
In certain studies with potent inhibitors (Ki<10 nM) where the degree of inhibition of thrombin was high, a more sensitive activity assay was employed. […]
Activity assays were performed by diluting a stock solution of substrate at least tenfold to a final concentration ≦0.1 Km into a solution containing enzyme or enzyme equilibrated with inhibitor. Times required to achieve equilibration between enzyme and inhibitor were determined in control experiments. Initial velocities of product formation in the absence (Vo) or presence of inhibitor (Vi) were measured. […]

With `Cc1cc2c(c(=O)n1CC(=O)NCc1ncccc1F)NC(=O)OC2(CC1CC1)CC1CC1` [compound 3-1] the Ki was < 100 nM.
